For experiment [1], the system named is expression of d2EGFP in human colon cancer COLO 320DM cells. Description: Level of expression of d2EGFP by cell sorter in DM clone treated with 5-aza (Example 9). It counts as cell-based. The note with it: DM clone treated with 3 μM of 5-aza for 3 days, then Doxycycline 1 μg/ml for 2 days. The text has this:
An equimolar mixture of a plasmid (pSFVdhfr/d2EGFP) and pTet-ON plasmid (Clontech Laboratories Inc.) was simultaneously transfected into human colon cancer COLO 320DM cells. The plasmid (pSFVdhfr/d2EGFP) was a plasmid having (a) IR and MAR derived from human DHFR gene locus, (b) Blasticidin tolerance gene, and (c) d2EGFP gene that was under control of TRE-promoter (Tetracycline inducing promoter). Meanwhile, the pTet-ON plasmid was a plasmid having Tet-ON gene encoding the transcription activating factor (Tet-ON protein) of TRE-promoter. The cells were selected with 5 μg/ml of Blasticidin thereby obtaining a polyclonal population of transformed cells. […] In FIG. 20, the detected base sequence derived from the pSFVdhfr/d2EGFP plasmid is indicated by the arrow. […]
In each culture solution of the two clones, 3 μM of 5-aza was added and thereby the clones were treated with 5-aza for 3 days. […] After the culturing, the level of the expression of d2EGFP in each clone was analyzed by a cell sorter. […] This polyclonal population of transformed cells was subjected to the induction of expression of d2EGFP with Doxycycline and a level of the expression of d2EGFP therein was analyzed by using the cell sorter in the same way as described above. […] FIG. 21(a) illustrates the result of the fluorescence intensity measurements of HSR clone two days after the addition of Doxycycline. […]

Experiment [2] deals with expression of d2EGFP in Tet-ON cells (COLO 320DM) transfected with pSFVdhfr/d2EGFP. Description: Level of expression of d2EGFP by cell sorter in HSR and DM clones of Tet-ON cells with 5-aza (Example 7). In kind it is cell-based, human. Conditions: 1 week, Doxycycline 1 μg/ml. On the procedure: Fluorescence intensity of these cells were measured by using a cell sorter. The measurement was carried out by sorting 20,000 cells by setting living cells at a gate. The cell sorter used was made by Becton Dickinson, and operated under conditions as described in the manual attached thereto.
In this method for detecting the fluorescence intensity, detection limit was 1, and all fluorescence intensities of 1 or less would be detected as 1. In view of this, a product of a ratio (cell %) of cells of fluorescence intensities of 2 or more in all living cells (10,000 cells) and an average of the fluorescence intensities of the cells having fluorescence intensities of 2 or more was calculated out for each experimental plot. This product is referred to as “accumulated fluorescence intensity” hereinafter and in later Examples and shown in boxed letter in the figures.
By lipofection, the pTet-ON plasmid (Clontech Laboratories Inc.) having Tet-ON gene encoding a transcription activating factor (Tet-ON protein) for promoting TRE-promoter was transfected into human colon cancer COLO 320DM. Transformed cells (hereinafter referred to as “Tet-ON cells”) which stably expressed Tet-ON protein, were selected with Hygromycin.
Next, the pSFVdhfr/d2EGFP plasmid was transfected into the Tet-ON cells by lipofection. The cells thus obtained were selected with 5 μg/ml of Blasticidin for approximately 3 weeks, thereby obtaining a polyclonal population of the stable transformed cells.
The expression of d2EGFP was induced in the polyclonal population by activating TRE-promoter by adding 5 μg/ml of Doxycycline (Clontech Laboratories Inc.) in the medium. FIG. 9 illustrates a result of analysis of the level of the expression of d2EGFP in this case by using a cell sorter. In FIG. 9, the value in parenthesis is an average of fluorescence intensities (i.e., average fluorescence intensity), and boxed value is an accumulated fluorescence intensity. Based on the result of FIG. 9, it was confirmed that the polyclonal population was a population for expressing d2EGFP (average fluorescence intensity: 6.25, accumulated fluorescence intensity: 536).
From the polyclonal population, given 30 clones were obtained by a limiting dilution method that was carried out by inoculating a clone to 6 well plates with such a low cell concentration of 30 cells/ml, and incubating the plates for 10 days to 2 weeks thereby obtaining colonies thereon.
From among the clones, 4 clones having high levels of expression of d2EGFP (Clone 4, Clone 5, Clone 6, and Clone 9) were selected by fluorescence microscopic observation. Mitotic chromosome samples of the 4 clones were prepared. By FISH method, detection for a base sequence derived from the transfected pSFVdhfr/d2EGFP plasmid was carried out. The preparation of mitotic chromosome samples and the FISH method were carried out as described in Shimizu, N., Kanda, T., and Wahl, G. M. Selective capture of acentric fragments by micronuclei provides a rapid method of purifying extrachromosomally amplified DNA. Nature Genet., 12: 65-71, 1996.
For 4 clones, induction with Doxycycline (Clontech Laboratories Inc.; 1 μg/ml) was carried out and 5-aza (0 μM, 1 μM or 3 μM) was added in the medium. After 1 week culturing, the level of expression of d2EGFP in each clone was analyzed by using a cell sorter.

Where [3] appears, read: clone 4 (HSR), 1 μM of 5-aza in the medium.
[4] abbreviates: clone 4 (HSR), 3 μM of 5-aza in the medium.
Setting [5] is: clone 5 (HSR), 1 μM of 5-aza in the medium.
[6] abbreviates: clone 5 (HSR), 3 μM of 5-aza in the medium.
Where [7] appears, read: clone 6 (HSR), 1 μM of 5-aza in the medium.
Where [8] appears, read: clone 6 (HSR), 3 μM of 5-aza in the medium.
Setting [9] is: clone 9 (DM), 1 μM of 5-aza in the medium.
[10] abbreviates: clone 9 (DM), 3 μM of 5-aza in the medium.

Take `Nc1ncn([C@H]2C[C@H](O)[C@@H](CO)O2)c(=O)n1` [5-aza, 5-aza-2′-deoxycytidine]: the accumulated fluorescence intensity in experiment [1] is 238113. Also, the accumulate fluorescence intensity was determined as 453 in experiment [2] (setting [3]); 2300 in experiment [2] (setting [4]); 126 in experiment [2] (setting [5]); 962 in experiment [2] (setting [6]); 111 in experiment [2] (setting [7]); 1000 in experiment [2] (setting [8]). Besides, the accumulate fluorescence intensity in experiment [2] (setting [9]) came to 13200; in experiment [2] (setting [10]), 24900. Further, the average fluorescence intensity in experiment [2] (setting [3]) was 5.46; in experiment [2] (setting [4]), 23.76; in experiment [2] (setting [5]), 2.23; in experiment [2] (setting [6]) it was 10.44; in experiment [2] (setting [7]) it was 2.09; in experiment [2] (setting [8]), 10.87. For the same molecule, the average fluorescence intensity came out at 131.86 in experiment [2] (setting [9]) and 248.60 in experiment [2] (setting [10]).

Values taken from patent publication US8771983B2, “Method and kit for expressing protein under regulation of the expression from repeated sequence formed by gene amplification, and transformant” (National University of Corporation Hiroshima University, priority 2004, dated 2014).
